# Where a SMILES comes first, the peptide text is derived from it. Bridges are numbered along the chain shown (N, C = ends). [ ]: non-standard residue; d: D form. S5 = C=CCCC[C@](C)(N)C(=O)O
# How the values were obtained:
# A549 cells [1] = assay: Flow cytometry cell cycle analysis; format: cell-based, human; conditions: 24 h, Abemaciclib 0.5 and 5 µM, Ctrl stapled peptide 10 µM, P2short 1 or 10 µM
# Procedure: Cells were trypsinized and fixed in 70% ice cold ethanol, washed in PBS and resuspended in PBS-1% BSA-50 mM citrate with 25 µg/mL RNase A for 15 min at 37 °C, supplemented with 25 µg/mL of propidium iodide for 30 min at room temperature. For each condition 20000 events were analysed by Gallios (Beckman Coulter) and data analysis was performed using FlowJo Software.
# A549 cells [2] = assay: cells; format: cell-based, human; conditions: Homo sapiens, A549; 48 hours, crystal violet, at least two independent experiments (n=4/experiment) ± SD, Grafit; read-out: IC50 A549 cell proliferation
# Procedure: Non-small cell lung cancer A549, H358 and PC9 cell lines used in this study. Cell culture media, serum and antibiotics were purchased from Life Technologies. All cell lines were cultured in RPMI + Glutamax supplemented with 10% FCS, 100 units/mL penicillin (G sodium salt) and 100 µg/mL streptomycin at 37 °C in an atmosphere containing 5% CO2. […] Stock solutions of drugs were prepared in DMSO and freshly diluted in PBS to the desired concentration prior to use, then added onto unsynchronized cells cultured to subconfluency (60-70%), which were then further incubated for 24, 48 or 72 h. Cell proliferation was determined by crystal violet assay following treatment with drugs. Cells were washed with PBS, fixed with 3.7% formaldehyde for 10 min and then incubated with 0.1% crystal violet dye for 30 min. After rinsing, crystals were dissolved in 10% acetic acid and viability was determined by measuring absorbance at 595 nm.
# [3] = test system: H358 orthotopic lung tumours; assay: Antitumour efficacy in mice with orthotopic lung tumour; format: in vivo
# Procedure: Luciferase-modified human H358 NSCLC cells (H358-Luc cells) were suspended in medium with 10 mM EDTA and 5 mg/mL Matrigel (BD Biosciences) at 5.10^6 cells/50 μL. Six-week-old female NMRI nude mice (Janvier, Le Genest, Saint Isle, France) were anesthetized (isoflurane/air 4% for induction and 1.5% thereafter), and cells were inoculated in the lungs via the airways as previously described, [48]. Non-invasive in vivo bioluminescence imaging (IVIS Kinetic, Perkin-Elmer) was used 10 min after the intraperitoneal injection of 10 mg/mL D-Luciferin (Promega, Charbonnières, France) to monitor the quality of the implantation and to follow orthotopic growth, [48]. […] Five weeks after the inoculation of H358-Luc cells, when bioluminescent orthotopic tumours were detected, nude mice were randomly divided into 6 groups. […] To determine proliferative index, total and Ki67 positive tumour epithelial cells were scored on two to eight fields per mouse in three or four mice per group, and reported as percentage of Ki67 positive cells. […] Total and p-RB positive tumour epithelial cells were scored on two to twenty-nine fields per mouse in three or four mice per group, and reported as percentage of p-RB positive cells in each field and each treatment group.
# [4] = target: C4D peptide derived from the alpha 5 helix of cyclin D1 (Homo sapiens, UniProt P24385); assay: Fluorescence titration of TP2-Rho-labelled C4D peptide with CDK4 C helix-derived peptides; format: binding; conditions: 200 nM TP2-Rho labelled C4D peptide, PBS, 30 °C, average of n = 3 to 5 ± SD
# Sequence of C4D peptide derived from the alpha 5 helix of cyclin D1 (P24385 whole entry): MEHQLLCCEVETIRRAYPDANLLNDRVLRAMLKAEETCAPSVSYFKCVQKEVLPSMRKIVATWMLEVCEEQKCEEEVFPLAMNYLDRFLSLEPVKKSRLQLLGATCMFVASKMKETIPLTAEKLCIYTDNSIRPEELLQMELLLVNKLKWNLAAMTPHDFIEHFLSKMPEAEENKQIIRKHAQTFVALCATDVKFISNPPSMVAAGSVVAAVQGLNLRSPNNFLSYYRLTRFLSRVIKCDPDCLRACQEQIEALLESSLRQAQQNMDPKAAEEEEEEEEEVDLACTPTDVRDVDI
# Procedure: (§1) TP2-Rho-labelled peptides: peptides were labelled on a unique cysteine residue with a five-fold molar excess of TP2-Rho-maleimide overnight, and then purified from free dye on NAP-5 columns (GE Healthcare), as described previously.
# (§2) Fluorescence titration assays were performed in 96-well plates in a thermostated chamber (Clariostar spectrofluorimeter, BMG) at 30 °C in 200 μL phosphate buffer saline using 200 nM fluorescently-labelled peptides or proteins. The fluorescence emission intensity of TP2-Rho-labelled peptides was recorded at 614 nm following excitation at 510 nm. The fluorescence emission intensity of mant-ATP was measured at […]. Data analysis was performed using the GraFit Software (Erathicus Ltd) and curve fitting was performed using a quadratic equation, as described previously. Experiments were performed in triplicate, and Kd values represent the average calculated for n = 3 to 5 experiments, together with standard deviation.
# [5] = Circular dichroism, determination of alpha helical content; format: physicochemical
# Procedure: CD experiments were carried out using a Jasco J815 spectropolarimeter. Spectra were recorded with 100 μM of peptides dissolved in phosphate buffer 50 mM, pH 7, using a 1 mm pathlength CD cuvette at 20 °C, over a wavelength range of 190-260 nm. Continuous scanning mode was used, with a response of 1.0 s with 0.1 nm steps and a bandwidth of 2 nm. The signal to noise ratio was improved by acquiring each spectrum over an average of two scans. Baseline was corrected by subtracting the background from the sample spectrum.
# Alpha helical content was determined using the following equation: % Helix = ([θ])obs * 100)/(-39500 * (1-2.57/n), where ([θ])obs is the mean residue ellipticity at 222 nm and n the number of peptide bonds.
# circular dichroism = conditions: 50 mM phosphate buffer; pH 7; 20 °C; 100 uM
# GST-cyclin D1 = target: T1, GST-cyclin D1 (Homo sapiens, UniProt P24385); assay: Fluorescence titration of TP2-Rho-labelled peptides with GST-cyclin D1; format: binding; conditions: 200 nM TP2-Rho labelled peptide titrated with GST-cyclin D1, PBS, 30 °C, average of n = 3 to 5 ± SD
# T1 construct: made in house; host or cells: E. coli
# T1 sequence (P24385 whole entry): as above
# Procedure: as §1
# Recombinant GST-CDK4 and GST-cyclin D1 were expressed in E. coli by IPTG induction and purified by FPLC chromatography as described previously.
# as §2
# [6] = Solubility of stapled peptides; format: physicochemical
compound,measurement,setting,value
CCN1CCN(Cc2ccc(Nc3ncc(F)c(-c4cc(F)c5nc(C)n(C(C)C)c5c4)n3)nc2)CC1 [Abemaciclib],effect on the cell cycle (proportion of cells in G1),A549 cells [1],significantly increased the proportion of cells in G1
same,IC50,A549 cells [2],2720 ± 2210 nM
same,"effect on H358 orthotopic tumour growth, single agent","[3]; bioluminescence, 3 weeks, Abemaciclib 10 mg/kg daily oral, P2shortA 0.45 mg/kg intrapulmonary 2 times a week, n=10",slightly reduced tumour growth
same,"Ki67 or pRb levels in tumours, single agent","[3]; intrapulmonary P2shortA or Abemaciclib alone, immunohistochemistry",did not reduce Ki67 or pRb levels
CC[C@H](C)[C@H](NC(=O)[C@@H]1CCCN1C(=O)[C@@H](N)CS)C(=O)N[C@@H](CO)C(=O)N[C@H](C(=O)N[C@H](C(=O)N[C@@H](CCCNC(=N)N)C(=O)N[C@@H](CCC(=O)O)C(=O)N[C@H](C(=O)N[C@@H](C)C(=O)N[C@@H](CC(C)C)C(=O)N[C@@H](CC(C)C)C(=O)N[C@@H](CCCNC(=N)N)C(=O)N[C@@H](CCCNC(=N)N)C(=O)N[C@@H](CC(C)C)C(=O)N[C@@H](CCC(=O)O)C(=O)N[C@@H](C)C(=O)N[C@@H](Cc1ccccc1)C(=O)N[C@@H](CCC(=O)O)C(N)=O)C(C)C)C(C)C)[C@@H](C)O [CDK4 C peptide] (H-CPISTVREVALLRRLEAFE-NH2),Kd,[4],83 ± 45 nM
same,% helix (alpha helical content),"[5]; CD, 100 μM peptide in phosphate buffer 50 mM, pH 7, 20 °C, from mean residue ellipticity at 222 nm",7%
same,helicity upon addition of 25% TFE,"[5]; CD, phosphate buffer with 25% TFE",46%
same,conformation in solution (CD),[5]; phosphate buffer,disordered
same,helicity,circular dichroism,7%
same,Kd,GST-cyclin D1,43 ± 24 nM
CC[C@H](C)[C@H](NC(=O)[C@@H]1CCCN1C(=O)[C@H](CC(C)C)NC(=O)CNC(C)=O)C(=O)N[C@@H](CO)C(=O)N[C@H](C(=O)N[C@H](C(=O)N[C@@H](CCCNC(=N)N)C(=O)N[C@@H](CCC(=O)O)C(=O)N[C@H](C(=O)N[C@@H](C)C(=O)N[C@@H](CC(C)C)C(=O)N[C@@]1(C)CCCC=CCCC[C@@](C)(C(=O)N[C@@H](C)C(=O)N[C@@H](Cc2ccccc2)C(=O)N[C@@H](CCC(=O)O)C(N)=O)NC(=O)[C@H](CC(C)C)NC(=O)[C@H](CCCNC(=N)N)NC(=O)[C@H](CCCNC(=N)N)NC1=O)C(C)C)C(C)C)[C@@H](C)O [P3] (Ac-GLPISTVREVAL[S5]RRL[S5]AFE-NH2; staple 13-17),solubility,[6],poorly soluble
